This passage reports DC50 results from US20260306640A1, “TECHNOLOGIES TARGETING CELL STATES” (Auron Therapeutics, Inc., priority 2023, published 2026).

One test addresses KAT2A (Homo sapiens, UniProt Q92830). Description: KAT2A degradation, Western Blot (Jess), NCI-H1048 cells. The following applies: NCI-H1048 cells, KAT2A, 24 h, Western Blot, vs DMSO; read-out: KAT2A NCI-H1048 DC50. The format is cell-based. Also on record: degrader, Western blot (Jess). The procedure:
(§1) MOLM-13 cells or NCI-H1048 cells were used for Western Blot analysis of KAT2A degradation. KAT2B degradation can be measured in a similar manner with NCI-H1048 cells.
(§2) H1048 cells were maintained at 37° C. in 5% CO2 and 90% humidity in HITES medium with 5% fetal bovine serum (FBS). HITES medium was […] with the following additions: 0.005 mg/ml Insulin, 0.01 mg/ml Transferrin, 30 nM Sodium selenite, 10 nM Hydrocortisone, 10 nM beta-estradiol, and extra 2 mM L-glutamine (for final concentration of 4.5 mM). Cells were plated in full media at 1 million cells/2 mL in a 6-well tissue culture treated plate with or without compounds for 24 h at 37° C. in 5% CO2.
(§3) MOLM-13 cells or NCI-H1048 cells were washed with PBS, then lysed with RIPA buffer containing 1×protease and phosphatase inhibitors (SantaCruz Biotechnologies Cat #sc-24948A). Protein was isolated by centrifugation at 12,000×g for 10 minutes at 4° C. and supernatant was collected. Protein was quantified via Bradford assay. Samples were diluted to 4 μg lysate in 16 μL RIPA buffer and then 4 μL of Jess Sample Buffer. Samples were heated at 95° C. for 5 minutes. Samples were loaded onto 12-230 kDa Jess™ Separation Module, 8×25 capillary cartridges (SM-W004, Biotechne). Antibodies loaded were: Primary antibody for KAT2A (GCN5L2 (C26A10) Rabbit mAb (3305, CST)) and for KAT2B (PCAF (C14G9)) Rabbit mAb (3378, CST) at 1:1000 and Anti-Rabbit Detection Module for Jess™ (Cat No #DM-001, Biotechne). Signal was detected by chemiluminescence.
(§4) DC50 values were determined from percent reduction of protein as compared to the DMSO control.
For orientation: A western blot detects proteins with antibodies after separation by electrophoresis.

In another test the target is KAT2B (Homo sapiens, UniProt Q92831). Description: KAT2B degradation, Western Blot (Jess), NCI-H1048 cells. Type of test: cell-based. Also on record: degrader, Western blot (Jess). The following applies: NCI-H1048 cells, KAT2B, 24 h, Western Blot, vs DMSO; read-out: KAT2B NCI-H1048 DC50. As to the method:
as §1, §2, §3, §4

Sequence of KAT2B (Q92831 whole entry): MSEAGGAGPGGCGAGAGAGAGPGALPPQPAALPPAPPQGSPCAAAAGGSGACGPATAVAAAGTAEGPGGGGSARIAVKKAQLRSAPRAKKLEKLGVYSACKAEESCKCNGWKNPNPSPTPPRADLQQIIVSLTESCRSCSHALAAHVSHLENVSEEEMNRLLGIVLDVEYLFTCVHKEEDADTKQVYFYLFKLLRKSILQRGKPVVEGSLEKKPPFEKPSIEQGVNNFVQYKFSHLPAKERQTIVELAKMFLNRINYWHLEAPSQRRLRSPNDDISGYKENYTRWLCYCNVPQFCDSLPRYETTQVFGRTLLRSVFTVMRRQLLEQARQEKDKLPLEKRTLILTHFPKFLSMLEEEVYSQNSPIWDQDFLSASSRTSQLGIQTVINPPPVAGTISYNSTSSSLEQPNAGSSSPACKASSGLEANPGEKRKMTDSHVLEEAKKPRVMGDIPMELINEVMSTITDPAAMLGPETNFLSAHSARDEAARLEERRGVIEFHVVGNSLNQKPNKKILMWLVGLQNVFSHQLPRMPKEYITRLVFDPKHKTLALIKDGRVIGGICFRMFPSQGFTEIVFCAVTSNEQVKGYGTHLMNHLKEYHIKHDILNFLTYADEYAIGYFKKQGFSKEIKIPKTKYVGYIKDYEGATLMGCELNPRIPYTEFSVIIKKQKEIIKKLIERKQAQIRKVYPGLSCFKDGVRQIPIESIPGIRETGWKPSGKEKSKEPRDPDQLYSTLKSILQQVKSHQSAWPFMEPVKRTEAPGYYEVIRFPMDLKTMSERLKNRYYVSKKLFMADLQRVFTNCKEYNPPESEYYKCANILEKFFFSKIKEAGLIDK
Sequence of KAT2A (Q92830 whole entry): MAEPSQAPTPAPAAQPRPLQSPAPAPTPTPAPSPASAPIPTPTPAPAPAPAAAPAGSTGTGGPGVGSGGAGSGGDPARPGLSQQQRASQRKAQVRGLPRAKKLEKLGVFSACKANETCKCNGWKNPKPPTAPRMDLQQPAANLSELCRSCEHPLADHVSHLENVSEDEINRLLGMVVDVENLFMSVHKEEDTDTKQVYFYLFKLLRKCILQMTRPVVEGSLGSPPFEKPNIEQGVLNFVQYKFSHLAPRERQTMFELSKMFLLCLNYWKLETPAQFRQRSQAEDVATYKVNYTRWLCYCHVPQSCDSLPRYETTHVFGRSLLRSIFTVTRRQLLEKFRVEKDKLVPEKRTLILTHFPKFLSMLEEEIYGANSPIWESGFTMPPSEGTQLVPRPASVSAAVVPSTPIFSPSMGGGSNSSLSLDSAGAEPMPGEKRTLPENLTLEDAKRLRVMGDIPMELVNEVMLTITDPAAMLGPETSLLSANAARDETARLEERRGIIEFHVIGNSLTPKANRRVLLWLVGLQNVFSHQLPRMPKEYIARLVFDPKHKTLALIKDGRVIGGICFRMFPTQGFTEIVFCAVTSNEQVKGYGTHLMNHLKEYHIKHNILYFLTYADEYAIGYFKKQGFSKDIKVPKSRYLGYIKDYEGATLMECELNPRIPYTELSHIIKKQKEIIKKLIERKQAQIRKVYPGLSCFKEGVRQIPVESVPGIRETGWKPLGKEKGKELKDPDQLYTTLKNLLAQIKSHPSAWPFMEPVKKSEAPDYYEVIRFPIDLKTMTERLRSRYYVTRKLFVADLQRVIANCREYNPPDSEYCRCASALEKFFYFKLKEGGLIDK

Broadly, the DC50 is the midpoint of the concentration-degradation curve. Consider `CN1C[C@H](Nc2cnn(C)c(=O)c2Br)C[C@H](c2ccc(C(=O)N3CCC4(CC3)CCN(c3ccc(C5CCC(=O)NC5=O)cc3)CC4)cc2)C1` (single isomer, unassigned) [Compound 239], for which the DC50 on KAT2A and on KAT2B was < 1 nM throughout.

On to `Cc1cc(N2CCC3(CCN(C(=O)c4ccc([C@H]5C[C@@H](Nc6cnn(C)c(=O)c6Br)CN(C)C5)cc4)CC3)CC2)cc(F)c1C1CCC(=O)NC1=O` (stereo partly shown) [Compound 2-69], for which the 50% degradation concentration (DC50) on KAT2A and on KAT2B was < 1 nM in each case.

For `CN1C[C@H](Nc2cnn(C)c(=O)c2Br)C[C@H](c2ccc(C(=O)N3CCC4(CC3)CCN(c3cccc5c3C(=O)N(C3CCC(=O)NC3=O)C5=O)CC4)cc2)C1` (stereo partly shown) [Compound 17], the half-maximal degradation concentration (DC50) on KAT2A and on KAT2B was 1 to 30 nM each time. For `CN1C[C@H](Nc2cnn(C)c(=O)c2Br)C[C@H](c2ccc(C(=O)N3CC(c4ccc(C5CCC(=O)NC5=O)cc4)C3)cc2)C1` (stereo partly shown) [Compound 189], the DC50 on KAT2A is 1 to 30 nM; on KAT2B it was > 30 nM.

In the case of `CN1C[C@H](Nc2cnn(C)c(=O)c2Br)C[C@H](c2ccc(CN3CC(c4cccc(C5CCC(=O)NC5=O)c4)C3)cc2)C1` (stereo partly shown) [Compound 190], the DC50 is 1 to 30 nM on KAT2A and > 30 nM at KAT2B. `CN1C[C@H](Nc2cnn(C)c(=O)c2Br)C[C@H](c2ccc(C(=O)N3CC(c4cccc(C5CCC(=O)NC5=O)c4)C3)cc2)C1` (stereo partly shown) [Compound 191]: the DC50 is 1 to 30 nM at KAT2A and > 30 nM on KAT2B. The matching figures for `Cc1c(N[C@@H]2C[C@H](c3ccc(COc4ccc5c(c4)C(=O)N(C4CCC(=O)NC4=O)C5=O)cc3)CN(C)C2)cnn(C)c1=O` (stereo partly shown) [Compound 192]: < 1 nM and > 30 nM. The like results for `CN1C[C@H](Nc2cnn(C)c(=O)c2Cl)C[C@H](c2ccc(C(=O)N3CC(c4cccc(C5CCC(=O)NC5=O)c4)C3)cc2)C1` (stereo partly shown) [Compound 193] were, in that order, 1 to 30 nM and > 30 nM. Regarding `CN1C[C@H](Nc2cnn(C)c(=O)c2Cl)C[C@H](c2ccc(CN3CC(c4cccc(C5CCC(=O)NC5=O)c4)C3)cc2)C1` (stereo partly shown) [Compound 194], the half-maximal degradation concentration (DC50) was 1 to 30 nM at KAT2A and > 30 nM at KAT2B. The matching figures for `CN1C[C@H](Nc2cnn(C)c(=O)c2Br)C[C@H](c2ccc(CN3CC(c4ccc(C5CCC(=O)NC5=O)cc4)C3)cc2)C1` (stereo partly shown) [Compound 195]: 1 to 30 nM and > 30 nM.

As to `CN1C[C@H](Nc2cnn(C)c(=O)c2Br)C[C@H](c2ccc(CN3CCN(c4cccc5c4oc(=O)n5C4CCC(=O)NC4=O)CC3)cc2)C1` (stereo partly shown) [Compound 196], the DC50 at KAT2A and on KAT2B was < 1 nM throughout.

Regarding `CN1C[C@H](Nc2cnn(C)c(=O)c2Br)C[C@H](c2ccc(C(=O)N3CC(c4ccc5c(c4)C(=O)N(C4CCC(=O)NC4=O)C5=O)C3)cc2)C1` (stereo partly shown) [Compound 197], the values for the DC50 on KAT2A and at KAT2B were 1 to 30 nM and > 30 nM, respectively. In the case of `Cc1c(C2CCC(=O)NC2=O)ccc(N2CCC3(CCN(C(=O)c4ccc([C@H]5C[C@@H](Nc6cnn(C)c(=O)c6Cl)CN(C)C5)cc4)CC3)CC2)c1F` (stereo partly shown) [Compound 253], the DC50 on KAT2A is < 1 nM. The same measure, in the same setting: as for `COc1cc(N2CCC3(CCN(C(=O)c4ccc([C@H]5C[C@@H](Nc6cnn(C)c(=O)c6Br)CN(C)C5)cc4)CC3)CC2)cc(F)c1C1CCC(=O)NC1=O` (stereo partly shown) [Compound 280], the figure is 1 to 30 nM; as for `COc1cc(N2CCC3(CCN(C(=O)c4ccc([C@H]5C[C@@H](Nc6cnn(C)c(=O)c6Cl)CN(C)C5)cc4)CC3)CC2)cc(F)c1C1CCC(=O)NC1=O` (stereo partly shown) [Compound 281], 1 to 30 nM.

As to `Cc1cc(N2CCC3(CCN(C(=O)c4ccc([C@H]5C[C@@H](Nc6cnn(C)c(=O)c6Br)CN(C)C5)cc4)CC3)CC2)cc(C)c1C1CCC(=O)NC1=O` (stereo partly shown) [Compound 282], at KAT2A, the DC50 was < 1 nM. The same measure, in the same setting: as for `CN1C[C@H](Nc2cnn(C)c(=O)c2Br)C[C@H](c2ccc(CN3CCN(c4cncc(C5CCC(=O)NC5=O)c4)CC3)cc2)C1` (stereo partly shown) [Compound 345], the figure is > 30 nM.

Regarding `C[C@@H]1CN(c2cccc(C3CCC(=O)NC3=O)c2)C[C@H](C)N1Cc1ccc([C@H]2C[C@@H](Nc3cnn(C)c(=O)c3Br)CN(C)C2)cc1` (stereo partly shown) [Compound 370], on KAT2A, the DC50 lay in the range of 1 to 30 nM. On the same count and under the same terms, for `C[C@@H]1CN(c2cccc(C3CCC(=O)NC3=O)c2)C[C@H](C)N1Cc1ccc([C@H]2C[C@@H](Nc3cnn(C)c(=O)c3Cl)CN(C)C2)cc1` (stereo partly shown) [Compound 371] the value was 1 to 30 nM; for `CN1C[C@H](Nc2cnn(C)c(=O)c2Br)C[C@H](c2ccc(C(=O)N3CCC4(CC3)CCN(c3ccc5c(N6CCC(=O)NC6=O)cncc5c3)CC4)cc2)C1` [Compound 375], 1 to 30 nM; for `CN1C[C@H](Nc2cnn(C)c(=O)c2Cl)C[C@H](c2ccc(CN3CCC(c4ccc5c(c4)C(=O)N(C4CCC(=O)NC4=O)C5=O)C(F)(F)C3)cc2)C1` (stereo partly shown) [Compound 392], 1 to 30 nM. The same measure, in the same setting: for `CN1C[C@H](Nc2cnn(C)c(=O)c2Cl)C[C@H](c2ccc(CN3CCN(c4cccc(CN5CCC(=O)NC5=O)c4)CC3)cc2)C1` [Compound 393] the value was > 30 nM; for `CN1C[C@H](Nc2cnn(C)c(=O)c2Br)C[C@H](c2ccc(N3CCC4(CC3)CCN(c3cccc(CN5CCC(=O)NC5=O)c3)CC4)cc2)C1` [Compound 400], 1 to 30 nM. Still for that read-out and setting: as for `CC(=O)N[C@H](C(=O)N1C[C@H](O)C[C@H]1C(=O)NCc1ccc(-c2scnc2C)cc1OCCCCNC(=O)c1ccc([C@H]2C[C@@H](Nc3cnn(C)c(=O)c3Br)CN(C)C2)cc1)C(C)(C)C` [Compound 406, (2S,4R)-1-((S)-2-acetamido-3,3-dimethylbutanoyl)-N-(2-(4-(4-((3R,5R)-5-((5-bromo-1-methyl-6-oxo-1,6-dihydropyridazin-4-yl)amino)-1-methylpiperidin-3-yl)benzamido)-butoxy)-4-(4-methylthiazol-5-yl)benzyl)-4-hydroxypyrrolidine-2-carboxamide], the figure is > 30 nM. Take `Cc1ncsc1-c1ccc(CNC(=O)[C@@H]2C[C@@H](O)CN2C(=O)[C@@H](NC(=O)C2CCN(C3CCN(C(=O)c4ccc([C@H]5C[C@@H](Nc6cnn(C)c(=O)c6Br)CN(C)C5)cc4)CC3)CC2)C(C)(C)C)cc1` [Compound 410]: the DC50 at KAT2B was > 30 nM. On to `Cc1nnc2c3ccccc3c(N[C@@H](C)[C@H](c3ccc(C(=O)N4CCC5(CC4)CCN(c4ccc(C6CCC(=O)NC6=O)cc4)CC5)cc3)N(C)C)nn12` (stereo partly drawn) [Compound 426, 3-(4-(9-(4-((1S,2S)-1-(dimethylamino)-2-((3-methyl-[1,2,4]triazolo[3,4-a]phthalazin-6-yl)amino)propyl)benzoyl)-3,9-diazaspiro[5.5]undecan-3-yl)phenyl)piperidine-2,6-dione], for which the DC50 on KAT2A is 1 to 30 nM.

In the case of `Cc1nnc2c3ccccc3c(N[C@@H](C)[C@H](c3ccc(CN4CCN(c5cccc(C6CCC(=O)NC6=O)c5)CC4)cc3)N(C)C)nn12` (stereo partly drawn) [Compound 428, 3-(3-(4-(4-((1S,2S)-1-(dimethylamino)-2-((3-methyl-[1,2,4]triazolo[3,4-a]phthalazin-6-yl)amino)propyl)benzyl)piperazin-1-yl)phenyl)piperidine-2,6-dione], the 50% degradation concentration (DC50) on KAT2A was > 30 nM. The same measure, in the same setting: as for `C[C@H](Nc1nn(C)c(=O)n(C)c1=O)[C@H](c1ccc(C(=O)N2CCC3(CC2)CCN(c2ccc(C4CCC(=O)NC4=O)cc2)CC3)cc1)N(C)C` (stereo partly drawn) [Compound 431, 6-(((1S,2S)-1-(dimethylamino)-1-(4-(9-(4-(2,6-dioxopiperidin-3-yl)phenyl)-3,9-diazaspiro[5.5]undecane-3-carbonyl)phenyl)propan-2-yl)amino)-2,4-dimethyl-1,2,4-triazine-3,5(2H,4H)-dione], the figure is 1 to 30 nM.
